{
  "source": "patent US20170095565A1",
  "about": "“CHEMICALLY MODIFIED SMALL MOLECULES” (Nektar Therapeutics, priority 2003, published 2017)",
  "key": {"[1]": {"details": "in vivo; cited from earlier work"}, "[2]": {"biological_target": "T1, human glucocorticoid receptor (hGR) (Homo sapiens, UniProt P04150)", "T1 construct": "expressed in transfected cells; host or cells: Chinese Hamster Ovary (CHO) cells", "T1 sequence (P04150 1-777)": "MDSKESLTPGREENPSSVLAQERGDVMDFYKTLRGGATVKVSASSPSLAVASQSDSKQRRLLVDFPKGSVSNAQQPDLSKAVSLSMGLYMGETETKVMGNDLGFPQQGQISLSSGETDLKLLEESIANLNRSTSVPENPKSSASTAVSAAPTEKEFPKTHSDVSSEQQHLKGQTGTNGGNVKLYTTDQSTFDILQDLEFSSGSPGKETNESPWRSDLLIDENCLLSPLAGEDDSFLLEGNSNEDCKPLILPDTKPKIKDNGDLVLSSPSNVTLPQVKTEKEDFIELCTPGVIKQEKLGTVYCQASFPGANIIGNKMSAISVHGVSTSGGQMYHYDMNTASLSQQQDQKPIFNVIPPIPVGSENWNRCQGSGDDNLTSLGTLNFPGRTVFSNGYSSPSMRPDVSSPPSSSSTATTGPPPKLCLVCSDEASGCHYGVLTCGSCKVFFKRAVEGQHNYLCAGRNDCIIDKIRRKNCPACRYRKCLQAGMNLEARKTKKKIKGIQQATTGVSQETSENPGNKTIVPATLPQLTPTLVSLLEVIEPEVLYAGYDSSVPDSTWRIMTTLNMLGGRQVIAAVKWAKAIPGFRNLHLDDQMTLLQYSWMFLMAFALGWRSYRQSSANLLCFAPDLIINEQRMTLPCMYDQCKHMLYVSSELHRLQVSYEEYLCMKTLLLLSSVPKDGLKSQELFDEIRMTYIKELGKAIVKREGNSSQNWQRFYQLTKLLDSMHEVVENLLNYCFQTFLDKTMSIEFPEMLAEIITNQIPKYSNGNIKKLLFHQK", "assay": "Steroid-induced nuclear translocation assay of hGR in CHO cells", "type": "cell-based", "procedure": "To determine whether PEGylated steroids can enter cells, and to compare their potency with the parent steroid triamcinolone, cells expressing the human glucocorticoid receptor (hGR) were incubated with increasing concentrations of TA, PEG-3-TA and PEG-7-TA, and the subcellular location of the hGR determined using immunocytochemistry and fluorescence microscopy.\nChinese Hamster Ovary (CHO) cells were plated on glass coverslips in 24-well plates, and transfected with DNA encoding the hGR using 0.25 μg DNA per well. One day following transfection, cells were incubated with increasing concentrations, from 1 nM to 10 μM, of TA, PEG-3-TA or PEG-7-TA, overnight at 37° C.\nStock solutions of steroids were prepared at 2 mM (TA) or 1 mM (PEG-3-TA, PEG-7-TA) in ethanol. Each test compound was diluted to 10 μM into culture medium supplemented with dextran-coated charcoal treated serum (DCCS) (final 5% serum), and then further diluted to the final concentrations. […] Dilutions of steroid were calculated to ensure that cells were not exposed to ethanol concentrations greater than 1% (v/v). […]\nFollowing treatment with test compounds, cells were fixed in 3.7% (v/v) formaldehyde/PBS and permeabilized with 1% (v/v) Triton-X-100 in blocking buffer. Subcellular localization of the transfected hGR was determined by immunocytochemistry using an anti-GR antibody and a FITC-conjugated secondary antibody. […]"}, "hGR": {"biological_target": "T2, hGR (Homo sapiens, UniProt P04150)", "T2 construct": "expressed in transfected cells; host or cells: COS-7 cells", "T2 sequence (P04150 1-777)": "T1 sequence (P04150 1-777)", "assay": "Glucocorticoid receptor luciferase reporter assay in COS-7 cells", "type": "cell-based", "details": "for EC50: ± standard error, 20 hours incubation, TA n = 1", "source_text": "To quantitate the effect of PEGylation on the ability of the steroid to enter a cell and elicit a response, a glucocorticoid receptor reporter assay was employed. In this assay, treatment of cells with ligand leads to receptor-mediated expression of the firefly luciferase gene. The level of gene expression is quantitated by an enzymatic luciferase assay, and the amount of light produced is directly proportional to the expression level of the luciferase gene.\nFor these experiments, the Promega Dual Luciferase Reporter kit was employed. This involves a firefly luciferase reporter gene under the control of the Glucocorticoid Response Element (GRE-Luc), co-transfected into COS-7 cells with a gene encoding the hGR and a control vector containing a Renilla luciferase reporter gene under no promoter or enhancer elements (pRL-Null). The firefly luciferase gene is expressed only upon binding of a ligand-bound receptor to the GRE-Luc enhancer. […]\nCos-cells were plated in 96-well microplates and transfected with the relevant plasmids using standard procedures; all incubations and assays were performed in triplicate in these plates using medium containing DCCS, as described in section 8.3.1. […] Cells were then lysed, and the expression levels of firefly and Renilla luciferase were determined by sequential enzymatic assays provided by the Promega Dual Luciferase Reporter Assay kit. The resulting luminescence was detected using the Tecan Genios Pro Microplate reader, and data were analyzed using GraphPad Prism 4.0 software.\nReadings obtained in the absence of steroid represent “basal” background levels of luciferase expression. All readings in the presence of steroid are expressed as a ratio compared with this, and termed “fold increase over basal.” Values obtained for firefly luciferase were normalized to those obtained for Renilla luciferase in the corresponding well in order to compensate for differences in transfection efficiency or cell number."}, "[3]": {"biological_target": "T3, recombinant human glucocorticoid receptor (Homo sapiens, UniProt P04150)", "T3 construct": "purchased PanVera", "T3 sequence (P04150 1-777)": "T1 sequence (P04150 1-777)", "assay": "Cell-free glucocorticoid receptor binding assay (fluorescence polarization)", "details": "for Ki: ± standard error, TA n = 2", "source_text": "The assay is based on competitive inhibition binding of a fluorescently labeled high affinity ligand, and generates Ki values that can be compared between the test compounds. […] Thus, as with EC5o values, a higher Ki value reflects a weaker binding affinity.\nA commercially available GR binding assay based on fluorescence polarization (FP) was utilized to compare the binding affinity of the PEGylated and native steroids (PanVera Glucocorticoid Receptor Competitor Assay). The assay is based on competitive inhibition and measures the ability of the test compound to compete with a fluorescently labeled ligand (Fluormone™ GS1) for binding to a purified preparation of the recombinant human glucocorticoid receptor.\nIn its free unbound form, the fluorescent ligand behaves as a small molecule with a high rotational velocity or “tumbling rate”, and correspondingly low ability to polarize fluorescence light (i.e. a low FP). When bound to receptor, the ligand essentially becomes part of a larger molecule, with a slower rotational velocity and a higher FP.\nStandard competition assay procedures were employed. Briefly, serial dilutions of the test compound were incubated in triplicate wells of a black 96-well microplate together with the fluorescent ligand, and reactions were initiated by addition of purified recombinant receptor. Assays were incubated in the dark for 2-4 h, and then polarization values were read using the fluorescence polarization function of the Tecan Genios Pro microplate reader."}, "[4]": {"assay": "Oral bioavailability: plasma concentration after oral gavage", "type": "in vivo, Sprague Dawley rats", "details": "rats, PEGylated compounds normalized to 1 mg/kg dose", "procedure": "Female Sprague Dawley® rats (150-200 g) were obtained from Harlan Labs. […] The animals were fasted overnight (day −1), but water was provided ad libitum.\nOn the morning of dosing (day 0), each rat was weighed and the cannulas flushed with heparin (1000 U/mL). With the aid of a feeding tube, the animals were then dosed orally (gavage) with aqueous formulations containing either the PEGylated or the free drug. The dose was determined on a mg/kg body weight basis. […] At specific time intervals (1, 2 and 4 hours), blood samples (approximately 1.0 mL) were removed through the cannula, placed in 1.5 mL centrifuge tubes containing 14 μL of heparin, mixed and centrifuged to separate the plasma. The plasma samples were frozen (<−70° C.) until assayed. The plasma samples were purified by a precipitation technique and the analyte extracted and assayed using a high performance liquid chromatography (LC) method with a mass selective detector (MSD). […] When appropriate, an internal standard was used in the analysis."}, "[5]": {"assay": "Solubility of tested compounds (Table 1)"}, "μ-Opiate Receptors": {"biological_target": "μ-Opiate Receptors (Homo sapiens, UniProt P35372)", "sequence (P35372 whole entry)": "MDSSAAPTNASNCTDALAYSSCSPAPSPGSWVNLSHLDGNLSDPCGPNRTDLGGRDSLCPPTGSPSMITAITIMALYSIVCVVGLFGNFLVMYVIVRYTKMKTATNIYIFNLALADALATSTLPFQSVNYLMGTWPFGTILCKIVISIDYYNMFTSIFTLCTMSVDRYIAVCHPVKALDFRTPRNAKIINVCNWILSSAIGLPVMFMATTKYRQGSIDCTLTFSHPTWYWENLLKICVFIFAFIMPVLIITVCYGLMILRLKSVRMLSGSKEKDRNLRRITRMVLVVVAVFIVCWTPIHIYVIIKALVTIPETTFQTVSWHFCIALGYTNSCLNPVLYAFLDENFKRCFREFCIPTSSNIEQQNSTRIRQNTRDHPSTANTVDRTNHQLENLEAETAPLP", "assay": "biochemical", "type": "biochemical", "source_text": "In the table above, for each compound, the bioactivity is provided as a measure of the relative bioactivity of each of the various PEG conjugates in comparison to parent drug. The EC50 is the concentration of agonist that provokes a response halfway between the baseline and maximum response in a standard dose-response curve."}, "Mu-opiate": {"biological_target": "Mu-opiate (Homo sapiens, UniProt P35372)", "sequence (P35372 whole entry)": "as above", "details": "read-out: IC50, Mu-opiate binding activity"}, "[6]": {"assay": "In-vitro metabolism, incubation with liver microsomes", "experimental": "The procedure calls for the preparation of a NADPH regenerating system (NRS) solution. […] After the solids were all dissolved, the solution was stored in an ice bath.\nMale Sprague Dawley rat microsomes (0.5 mL at 20 mg/mL concentration; M00001 from In-vitro Technologies, Baltimore, Md.) were removed from the freezer and thawed in an ice bath. Forty μL of the liver microsomes were diluted to 100 μL with 60 μL of deionized water in a test vial. To the test vial, tris buffer, pH 7.4 (640 μL) and a test article stock (10 μL) were added to have 750 μL volume.\nEach test vial and the NRS solution were separately placed in a 37° C. water bath for 5 minutes. The NRS solution (250 μL) was added into each test vial. The reaction timer was started at the addition of the NRS to the first test vial. Each sample (200 μL) was collected and then perchloric acid (20 μL) was added to terminate the reaction. The samples were collected at the following time points: 0-2, 20, 40 and 60 minutes. All of the terminated test vials were stored in an ice bath.\nAcetonitrile (100 μL) was added into each test vial, which was then centrifuged at 3000×g for 5 minutes. Supernatant (230 μL) was withdrawn and then 10 μL of the test solution was assayed by an LC/MS method. The concentration of test article in each sample was measured and recorded at each time point."}},
  "note": "Read-outs that look alike come from different tables or passages of the source.",
  "data": [
    {"compound": "Nc1nc(F)nc2c1ncn2[C@@H]1O[C@H](CO)[C@@H](O)[C@@H]1O", "note": "[fludarabine]", "values": [
      {"measurement": "Oral bioavailability", "setting": "[1]", "result": "about 70%"}
    ]},
    {"compound": "C[C@]12C=CC(=O)C=C1CC[C@H]1[C@@H]3C[C@@H](O)[C@](O)(C(=O)CO)[C@@]3(C)C[C@H](O)[C@@]12F", "note": "[TA, triamcinolone]", "values": [
      {"measurement": "Concentration for complete translocation of hGR to the nucleus", "setting": "[2]", "result": "≥ 10", "unit": "nM"},
      {"measurement": "hGR localization", "setting": "[2]; 1 nM (lowest concentration), overnight", "result": "predominantly in the nucleus"},
      {"measurement": "EC50", "setting": "hGR", "result": 0.545, "unit": "nM"},
      {"measurement": "Ki", "setting": "[3]", "result": "45.5 ± 21.1", "unit": "nM"}
    ]},
    {"compound": "CC1(C)O[C@@H]2C[C@H]3[C@@H]4CCC5=CC(=O)C=C[C@]5(C)[C@@]4(F)[C@@H](O)C[C@]3(C)[C@]2(C(=O)CO)O1", "note": "[TAA, triamcinolone acetonide]", "values": [
      {"measurement": "Fold difference vs TAA (EC50, Luciferase assay)", "setting": "hGR", "result": 1},
      {"measurement": "EC50", "setting": "hGR", "result": "0.062 ± 0.011", "unit": "nM"},
      {"measurement": "Fold difference vs TAA (Ki, Binding assay)", "setting": "[3]", "result": 1},
      {"measurement": "Ki", "setting": "[3]", "result": "2.2 ± 0.5", "unit": "nM"}
    ]},
    {"compound": "C=CCN1CC[C@]23c4c5ccc(O)c4O[C@H]2C(OCCOCCOCCOC)CC[C@@]3(O)[C@H]1C5", "note": "(stereo partly drawn) [β-PEG3-Nal, β-6-CH3—(OCH2CH2)3—O-naloxol]", "values": [
      {"measurement": "Mean Plasma Concentration ± SD, 1 hr", "setting": "[4]; 1 hr", "result": "53.79 ± 5.19", "unit": "ng/mL"},
      {"measurement": "Mean Plasma Concentration ± SD, 2 hr", "setting": "[4]; 2 hr", "result": "22.47 ± 8.78", "unit": "ng/mL"},
      {"measurement": "Solubility", "setting": "[5]", "result": "soluble"},
      {"measurement": "Percentage of Active Remaining After Incubation with Liver Microsomes", "setting": "0 min", "result": 100.0, "unit": "%"},
      {"measurement": "Percentage of Active Remaining After Incubation with Liver Microsomes", "setting": "20 min", "result": 83.9, "unit": "%"},
      {"measurement": "Percentage of Active Remaining After Incubation with Liver Microsomes", "setting": "40 min", "result": 75.2, "unit": "%"},
      {"measurement": "Percentage of Active Remaining After Incubation with Liver Microsomes", "setting": "60 min", "result": 69.6, "unit": "%"},
      {"measurement": "Bioactivity relative to the parent compound", "setting": "μ-Opiate Receptors; from EC50 values", "result": "about 35%"},
      {"measurement": "EC50", "setting": "μ-Opiate Receptors; μ-opiate receptors, in-vitro", "result": 31.7, "unit": "nM"},
      {"measurement": "IC50", "setting": "Mu-opiate", "result": 31.7, "unit": "nM"},
      {"measurement": "Substrate quality for cytochrome P450 isozymes in isolated rat liver microsomes", "setting": "[6]", "result": "poor substrate"}
    ]}
  ]
}
